This assay has as its system rat collagen-induced arthritis model. As to the kind of experiment: rat collagen-induced arthritis model, edema suppression in both hindlimbs. It counts as in vivo, female Lewis rat (LEW/Crj). To be noted: oral, Drug A 3 mg/kg twice a day, Drug B 1.5 mg/kg once a day; for Relative index: edema volume of group / control group; for Edema volume for both hindlimbs: average ± standard error of 5 to 6 rats; for Decreasing rate: vs control group; for edema suppressive effect (in words): sole administration. The protocol:
For the cases of combined administration of 2-benzyl-5-(4-chlorophenyl)-6-[4-(methylthio)phenyl]-2H-pyridazin-3-one (the product synthesized by the above-described method is used) (Drug A) and leflunomide (Drug B), and respective single drug administrations, the effect of edema suppression in both hindlimbs was determined by the following method (rat collagen-induced arthritis model) (FDA, CBER, CDER, CDRH: Guidance for industry—Clinical development programs for drugs, devices, and biological products for the treatment of rheumatoid arthritis (RA)—. (1999)). In addition, the test animal used was female Lewis rat (LEW/Crj) (obtained from Charles River Laboratories Japan, Inc.).
For each 8-week-old LEW/Crj rat, the volume of a portion extending from the ankle to the paw was measured for both hindlimbs (hereinafter, hindlimbs volume) by means of a plethysmometer for small animals (TK-101CMP, product of Unicom), and the total volume was taken as the hindlimbs volume upon initiation of test (hereinafter, Pre value). This Pre value was used as an index to divide the rats into groups by one-parameter-based block randomization, so that the values in the respective groups averaged out.
The collagen emulsion for sensitization that was used to induce arthritis in rats, was prepared by homogenizing a 0.3% Type II collagen solution (Collagen Research Center), Adjuvant Peptide (Peptide Institute, Inc.) and Adjuvant Incomplete Freund (DIFCO), using a Handy Micro Homogenizer (Microtec Nition, Co., Ltd.) under ice-cooling. The collagen emulsion thus prepared was intracutaneously administered at 10 sites in the back of each rat at a dose of 0.1 mL/site, to perform initial sensitization of the rat. Seven days after the initial sensitization, 0.12 mL of the same collagen emulsion was intracutaneously administered to the tail head of each rat, to perform booster sensitization.
Drug administration was conducted from the day after the initial sensitization through 29 days thereafter. The group for sole administration of Drug A was orally administered with the drug at 3 mg/kg, twice a day, in the morning (9:00 to 11:00) and in the evening (15:30 to 17:30). The group for sole administration of Drug B was orally administered with the drug at 1.5 mg/kg, once a day, in the afternoon (11:30 to 13:30). On the other hand, the group for combined administration of Drug A and Drug B was orally administered with Drug A at 3 mg/kg in the morning (9:00 to 11:00) and in the evening (15:30 to 17:30), and with Drug B at 1.5 mg/kg in the afternoon (11:30 to 13:30).
14, 18, 21, 26 and 31 days after the initial sensitization, the hindlimbs volume was measured again for each rat, and the difference between each of the values and the Pre value was determined to calculate the edema volume for both hindlimbs.
Tables 1 to 4 and FIGS. 1 to 4 represent the edema volume for both hindlimbs after 18, 21, 26 and 31 days from the initial sensitization, respectively, of the group for sole administration of Drug A, the group for sole administration of Drug B and the group for combined administration. The edema volume for both hindlimbs (mL) is expressed in the average value±standard error of 5 to 6 rats in each group. Furthermore, the decreasing rate is indicated as (average value of edema volume for both hindlimbs for the control group−the average value of edema volume for hindlimbs for each group)/(average value of edema volume for both hindlimbs for the control group)×100, while the relative index is indicated as (average value of edema volume for both hindlimbs for each group)/(average value of edema volume for both hindlimbs for the control group).

[1] abbreviates: 18 days after initial sensitization.
Setting [2] is: 21 days after initial sensitization.
[3] abbreviates: 26 days after initial sensitization.
Where [4] appears, read: 31 days after initial sensitization.

Turning to `CSc1ccc(-c2nn(Cc3ccccc3)c(=O)cc2-c2ccc(Cl)cc2)cc1` [Drug A, 2-benzyl-5-(4-chlorophenyl)-6-[4-(methylthio)phenyl]-2H-pyridazin-3-one], the “edema suppressive effect (in words)” value is “did not show a potent edema suppressive effect”. Under setting [1], the Relative index is 0.89, the “Edema volume for both hindlimbs” value is 1.79 ± 0.17 mL and the Decreasing rate was determined as 11%. In addition, under setting [2], the Relative index turned out to be 0.90, the “Edema volume for both hindlimbs” value was found to be 1.54 ± 0.17 mL and the Decreasing rate is 10%. Further, under setting [3], the Relative index is given as 0.99, the “Edema volume for both hindlimbs” value is 1.58 ± 0.27 mL and the Decreasing rate is on record as 1%. For the same compound, under setting [4], the Relative index is 1.02, the “Edema volume for both hindlimbs” value turned out to be 1.44 ± 0.26 mL and the Decreasing rate is recorded as −2%.

For `Cc1oncc1C(=O)Nc1ccc(C(F)(F)F)cc1` [Drug B, N-(4-trifluoromethylphenyl)-5-methylisoxazole-4-carboxamide], the “edema suppressive effect (in words)” value was “decrease in the edema suppressive effect in the stage after 18 days from the initial sensitization”. For the same compound, under setting [1], the Relative index is recorded as 0.28, the “Edema volume for both hindlimbs” value came to 0.57 ± 0.32 mL and the Decreasing rate was found to be 72%. Under setting [2], the Relative index is listed as 0.34, the “Edema volume for both hindlimbs” value came out at 0.58 ± 0.31 mL and the Decreasing rate is on record as 66%. Also, under setting [3], the Relative index stood at 0.49, the “Edema volume for both hindlimbs” value is reported as 0.78 ± 0.28 mL and the Decreasing rate was determined as 51%. In addition, under setting [4], the Relative index was 0.57, the “Edema volume for both hindlimbs” value is on record as 0.81 ± 0.26 mL and the Decreasing rate was 43%.

The values are drawn from US20090281106A1, “PROPHYLACTIC AND/OR THERAPEUTIC METHOD FOR RHEUMATOID ARTHRITIS” (Kowa Co., Ltd, priority 2005, published 2009).
